# According to BindingDB's records for patent US20240190893 (Janssen Pharmaceutica, 2024):
# Where “and” joins values, the source holds several entries; their conditions need not be identical. Identical values can stand only once.
# Molecular target: Induced myeloid leukemia cell differentiation protein Mcl-1 (Homo sapiens, UniProt Q07820)
# Test: Terbium labeled Myeloid Cell Leukemia 1 (Mcl-1) homogeneous time-resolved fluorescence (HTRF) binding assay
# Description: This assay evaluated inhibition of the BH3 domain: Mcl-1 interaction by measuring the displacement of Cy5-labeled BIM BH3 peptide (H2N (C/Cy5Mal) WIAQELRRIGDEFN-OH) in the HTRF assay format.
# Sequence of Induced myeloid leukemia cell differentiation protein Mcl-1 (Q07820 whole entry): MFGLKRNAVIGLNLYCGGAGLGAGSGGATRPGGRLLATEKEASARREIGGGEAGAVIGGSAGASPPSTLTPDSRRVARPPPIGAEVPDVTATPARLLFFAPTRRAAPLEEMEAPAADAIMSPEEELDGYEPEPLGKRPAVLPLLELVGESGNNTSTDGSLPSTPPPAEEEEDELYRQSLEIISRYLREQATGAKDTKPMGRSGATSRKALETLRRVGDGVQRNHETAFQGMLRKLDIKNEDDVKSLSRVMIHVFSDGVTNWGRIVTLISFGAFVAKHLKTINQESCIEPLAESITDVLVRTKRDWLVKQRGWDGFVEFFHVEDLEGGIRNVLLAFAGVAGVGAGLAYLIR
smiles,measurement,value
"Cc1nn(C)c(C)c1-c1c(Cl)ccc2c3c(C(=O)O)n(c12)CCCSCc1cc(n(C)n1)CSc1cc(c2ccccc2c1)OCCC3 [US20240190893, Compound 19]",Ki,1.44 nM and 0.249 nM
